Structures are written as SMILES.

The test deals with hOGG1 (Homo sapiens, UniProt O15527). Kind of test: Biochemical fluorescence assay to measure enzymatic activity of hOGG1 (OGG1/APEX IC50). Details: Protein His-hOGG1 (12-323) was prepared; His (N); host or cells: E. coli. The conditions noted are these: 1 nM OGG1+2 nM APEX+6 nM dsDNA (8-oxo-dG substrate); pH 7.5; RT 40 min; read-out: OGG1/APEX IC50. In a few lines: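 His-hOGG1 (12-323, E. coli) at 1 nM with 2 nM hAPE1/APEX1, preincubated 20 min RT with compound. Then 6 nM 8-oxo-dG dsDNA substrate added, 40 min at RT in Tris pH 7.5, 100 mM KCl. TAMRA fluorescence (Ex520/Em600) converted to % inhibition vs controls; IC50 from 3-parameter fit of 10-point curve.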
hOGG1, sequence (O15527 12-323): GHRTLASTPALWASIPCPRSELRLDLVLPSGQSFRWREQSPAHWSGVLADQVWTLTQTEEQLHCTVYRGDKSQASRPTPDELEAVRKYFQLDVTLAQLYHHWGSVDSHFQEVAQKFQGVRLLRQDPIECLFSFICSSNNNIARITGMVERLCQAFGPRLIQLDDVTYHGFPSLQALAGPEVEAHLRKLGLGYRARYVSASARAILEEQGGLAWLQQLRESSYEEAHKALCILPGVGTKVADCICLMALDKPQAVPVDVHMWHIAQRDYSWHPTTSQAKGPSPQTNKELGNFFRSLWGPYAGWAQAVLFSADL
`COc1cc(NC(=O)[C@H]2CC[C@@H](N3Cc4c(C)cccc4OC3=O)CC2)ccc1C` [Example 115, (1s,4s)-N-(3-methoxy-4-methylphenyl)-4-(5-methyl-2-oxo-2H-benzo[e][1,3]oxazin-3(4H)-yl)cyclohexane-1-carboxamide]: the IC50 lay in the range of 100 to 1000 nM. On to `COc1cc(NC(=O)[C@H]2CC[C@@H](N3Cc4c(C)cc(O)cc4OC3=O)CC2)ccc1C` [Example 116, (1s,4s)-4-(7-hydroxy-5-methyl-2-oxo-2H-benzo[e][1,3]oxazin-3(4H)-yl)-N-(3-methoxy-4-methylphenyl)cyclohexane-1-carboxamide], for which the IC50 lay in the range of 100 to 1000 nM. With `COc1cc(NC(=O)[C@H]2CC[C@@H](N3Cc4c(C)cc(OCCN(C)C)cc4OC3=O)CC2)ccc1C` [Example 117, (1s,4s)-4-(7-(2-(dimethylamino)ethoxy)-5-methyl-2-oxo-2H-benzo[e][1,3]oxazin-3(4H)-yl)-N-(3-methoxy-4-methylphenyl)cyclohexane-1-carboxamide], the IC50 was 100 to 1000 nM. Regarding `COc1cc(NC(=O)[C@H]2CC[C@@H](n3[nH]c4c(C)cccc4c3=O)CC2)ccc1C` [Example 118, (1s,4s)-N-(3-Methoxy-4-methylphenyl)-4-(7-methyl-3-oxo-1,3-dihydro-2H-indazol-2-yl)cyclohexane-1-carboxamide], the IC50 is less than 100 nM. To `COc1cc(NC(=O)[C@H]2CC[C@@H](n3[nH]c4c(C)cc(F)cc4c3=O)CC2)ccc1C` [Example 119, (1s,4s)-4-(5-Fluoro-7-methyl-3-oxo-1,3-dihydro-2H-indazol-2-yl)-N-(3-methoxy-4-methylphenyl)cyclohexane-1-carboxamide] belongs 100 to 1000 nM; to `COc1cc(NC(=O)[C@H]2CC[C@@H](N3Cc4c(C)cccc4C3=O)CC2)ccc1Br` [Example 120, (1s,4s)-N-(4-Bromo-3-methoxyphenyl)-4-(4-methyl-1-oxoisoindolin-2-yl)cyclohexane-1-carboxamide], 100 to 1000 nM. With `COc1cc(NC(=O)[C@H]2CC[C@@H](N3Cc4c(C)cccc4C3=O)CC2)ccc1C1CC1` [Example 121, (1s,4s)-N-(4-Cyclopropyl-3-methoxyphenyl)-4-(4-methyl-1-oxoisoindolin-2-yl)cyclohexane-1-carboxamide], the IC50 was in the range of 1000 to 10000 nM. Turning to `C=Cc1ccc(NC(=O)[C@H]2CC[C@@H](N3Cc4c(C)cccc4C3=O)CC2)cc1OC` [Example 122, (1s,4s)-N-(3-Methoxy-4-vinylphenyl)-4-(4-methyl-1-oxoisoindolin-2-yl)cyclohexane-1-carboxamide], the IC50 lay in the range of 100 to 1000 nM. Turning to `CCc1ccc(NC(=O)[C@H]2CC[C@@H](N3Cc4c(C)cccc4C3=O)CC2)cc1OC` [Example 123, (1s,4s)-N-(4-Ethyl-3-methoxyphenyl)-4-(4-methyl-1-oxoisoindolin-2-yl)cyclohexane-1-carboxamide], the IC50 lay in the range of 100 to 1000 nM. Turning to `Cc1ccc(NC(=O)[C@H]2CC[C@@H](N3Cc4c(C)cccc4C3=O)CC2)cc1Br` [Example 124, (1s,4s)-N-(3-Bromo-4-methylphenyl)-4-(4-methyl-1-oxoisoindolin-2-yl)cyclohexane-1-carboxamide], the IC50 lay within 100 to 1000 nM. For the compound `Cc1ccc(NC(=O)[C@H]2CC[C@@H](N3Cc4c(C)cccc4C3=O)CC2)cc1C1COC1` [Example 125, (1s,4s)-4-(4-Methyl-1-oxoisoindolin-2-yl)-N-(4-methyl-3-(oxetan-3-yl)phenyl)cyclohexane-1-carboxamide], the IC50 was more than 10000 nM. With `Cc1ccc(NC(=O)[C@H]2CC[C@@H](N3Cc4c(C)cccc4C3=O)CC2)cc1CO` [Example 126, (1s,4s)-N-(3-(Hydroxymethyl)-4-methylphenyl)-4-(4-methyl-1-oxoisoindolin-2-yl)cyclohexane-1-carboxamide], the IC50 was in the range of 1000 to 10000 nM.

Consider `CCc1ccc(NC(=O)[C@H]2CC[C@@H](N3Cc4c(C)cccc4C3=O)CC2)cc1C` [Example 127, (1s,4s)-N-(4-Ethyl-3-methylphenyl)-4-(4-methyl-1-oxoisoindolin-2-yl)cyclohexane-1-carboxamide], for which the IC50 was 1000 to 10000 nM. Consider `CCc1ccc(NC(=O)[C@H]2CC[C@@H](N3Cc4c(C)cccc4C3=O)CC2)cc1C#N` [Example 128, (1s,4s)-N-(3-Cyano-4-ethylphenyl)-4-(4-methyl-1-oxoisoindolin-2-yl)cyclohexane-1-carboxamide], for which the IC50 fell in the range of 100 to 1000 nM. On to `Cc1cc(NCCN(C)C)cc2c1CN([C@H]1CC[C@@H](C(=O)Nc3nc4ccccc4s3)CC1)C2=O` [Example 129, (1s,4s)-N-(Benzo[d]thiazol-2-yl)-4-(6-((2-(dimethylamino)ethyl)amino)-4-methyl-1-oxoisoindolin-2-yl)cyclohexane-1-carboxamide], for which the IC50 lay within 100 to 1000 nM. Regarding `Cc1cc(NCCN(C)C)cc2c1CN([C@H]1CC[C@@H](C(=O)Nc3ccn(CCO)n3)CC1)C2=O` [Example 130, (1s,4s)-4-(6-((2-(Dimethylamino)ethyl)amino)-4-methyl-1-oxoisoindolin-2-yl)-N-(1-(2-hydroxyethyl)-1H-pyrazol-3-yl)cyclohexane-1-carboxamide], the IC50 lay in the range of 1000 to 10000 nM. As for `Cc1cc(NCCN(C)C)cc2c1CN([C@H]1CC[C@@H](C(=O)Nc3nc(CCO)cs3)CC1)C2=O` [Example 131, (1s,4s)-4-(6-((2-(Dimethylamino)ethyl)amino)-4-methyl-1-oxoisoindolin-2-yl)-N-(4-(2-hydroxyethyl)thiazol-2-yl)cyclohexane-1-carboxamide], the IC50 lay within 1000 to 10000 nM. As to `COc1cc(NC(=O)[C@H]2CC[C@@H](N3Cc4c(CN)ccc(Cl)c4C3=O)CC2)ccc1C` [Example 133, (1s,4s)-4-(4-(Aminomethyl)-7-chloro-1-oxoisoindolin-2-yl)-N-(3-methoxy-4-methylphenyl)cyclohexane-1-carboxamide], the IC50 is more than 10000 nM. For `COc1cc(NC(=O)[C@H]2CC[C@@H](N3Cc4c(CN)cccc4C3=O)CC2)ccc1C` [Example 134, (1s,4s)-4-(4-(aminomethyl)-1-oxoisoindolin-2-yl)-N-(3-methoxy-4-methylphenyl)cyclohexane-1-carboxamide], the IC50 is more than 10000 nM. As for `COc1cc(NC(=O)[C@H]2CC[C@@H](N3Cc4c(C)cc(NCC5(O)CNC5)cc4C3=O)CC2)ccc1C` [Example 136, (1s,4s)-4-(6-(((3-hydroxyazetidin-3-yl)methyl)amino)-4-methyl-1-oxoisoindolin-2-yl)-N-(3-methoxy-4-methylphenyl)cyclohexanecarboxamide], the IC50 is less than 100 nM. With `COc1cc(NC(=O)[C@H]2CC[C@@H](N3Cc4c(C)cc(CN5CC[C@@H](O)C5)cc4C3=O)CC2)ccc1C` [Example 137, (1S,4s)-4-(6-(((R)-3-Hydroxypyrrolidin-1-yl)methyl)-4-methyl-1-oxoisoindolin-2-yl)-N-(3-methoxy-4-methylphenyl)cyclohexanecarboxamide], the IC50 is less than 100 nM.

For `COc1cc(NC(=O)[C@H]2CC[C@@H](N3Cc4c(C)cc(OCC5(O)CNC5)cc4C3=O)CC2)ccc1C` [Example 138, (1s,4s)-4-(6-((3-Hydroxyazetidin-3-yl)methoxy)-4-methyl-1-oxoisoindolin-2-yl)-N-(3-methoxy-4-methylphenyl)cyclohexanecarboxamide], the IC50 is less than 100 nM. With `COc1cc(NC(=O)[C@@H]2CC[C@@H](N3Cc4c(C)cc(NCCN(C)C)cc4C3=O)C2)ccc1C` [Example 139, (1R,3R)-3-(6-((2-(Dimethylamino)ethyl)amino)-4-methyl-1-oxoisoindolin-2-yl)-N-(3-methoxy-4-methylphenyl)cyclopentanecarboxamide], the IC50 is more than 10000 nM. The same measure for `COc1cc(NC(=O)[C@H]2CC[C@@H](N3Cc4c(C)cc(NCC5(F)CNC5)cc4C3=O)CC2)ccc1C` [Example 140, (1s,4s)-4-(6-(((3-Fluoroazetidin-3-yl)methyl)amino)-4-methyl-1-oxoisoindolin-2-yl)-N-(3-methoxy-4-methylphenyl)cyclohexanecarboxamide]: less than 100 nM. The same measure for `COc1cc(NC(=O)[C@H]2CC[C@@H](N3Cc4c(C)cc(OCC5(F)CNC5)cc4C3=O)CC2)ccc1C` [Example 141, (1s,4s)-4-(6-((3-Fluoroazetidin-3-yl)methoxy)-4-methyl-1-oxoisoindolin-2-yl)-N-(3-methoxy-4-methylphenyl)cyclohexanecarboxamide]: less than 100 nM.

Turning to `COc1cc(NC(=O)[C@H]2CC[C@@H](N3Cc4c(Br)ccc(Cl)c4C3=O)CC2)ccc1C` [Example 142, (1s,4s)-4-(4-Bromo-7-chloro-1-oxoisoindolin-2-yl)-N-(3-methoxy-4-methylphenyl)cyclohexanecarboxamide], the IC50 lay in the range of 100 to 1000 nM. Consider `COc1cc(NC(=O)[C@H]2CC[C@@H](N3Cc4c(C)ccc(Cl)c4C3=O)CC2)ccc1C` [Example 144, (1s,4s)-4-(7-Chloro-4-methyl-1-oxoisoindolin-2-yl)-N-(3-methoxy-4-methylphenyl)cyclohexanecarboxamide], for which the IC50 is less than 100 nM. To `COc1cc(NC(=O)[C@H]2CC[C@@H](N3Cc4c(C)cccc4C3=O)CC2)ccc1CO` [Example 145, (1s,4s)-N-(4-(Hydroxymethyl)-3-methoxyphenyl)-4-(4-methyl-1-oxoisoindolin-2-yl)cyclohexanecarboxamide] belongs 1000 to 10000 nM; to `COc1cc(NC(=O)[C@H]2CC[C@@H](N3Cc4c(C)cc(C5=CCNCC5)cc4C3=O)CC2)ccc1C` [Example 146, (1s,4s)-N-(3-Methoxy-4-methylphenyl)-4-(4-methyl-1-oxo-6-(1,2,3,6-tetrahydropyridin-4-yl)isoindolin-2-yl)cyclohexanecarboxamide], less than 100 nM. For `COc1cc(NC(=O)[C@H]2CC[C@@H](N3Cc4c(cccc4C(F)(F)F)C3=O)CC2)ccc1C` [Example 147, (1s,4s)-N-(3-Methoxy-4-methylphenyl)-4-(1-oxo-4-(trifluoromethyl)isoindolin-2-yl)cyclohexanecarboxamide], the IC50 was 1000 to 10000 nM.

Source of the values: patent US20260317356A1, “SMALL MOLECULE MODULATORS OF OGG1” (AZKARRA THERAPEUTICS, INC., priority 2023, published 2026).
